For the assay, the target named is T1, MAGL (recombinant wild-type) (Homo sapiens, UniProt Q99685).
T1 sequence (Q99685 1-303): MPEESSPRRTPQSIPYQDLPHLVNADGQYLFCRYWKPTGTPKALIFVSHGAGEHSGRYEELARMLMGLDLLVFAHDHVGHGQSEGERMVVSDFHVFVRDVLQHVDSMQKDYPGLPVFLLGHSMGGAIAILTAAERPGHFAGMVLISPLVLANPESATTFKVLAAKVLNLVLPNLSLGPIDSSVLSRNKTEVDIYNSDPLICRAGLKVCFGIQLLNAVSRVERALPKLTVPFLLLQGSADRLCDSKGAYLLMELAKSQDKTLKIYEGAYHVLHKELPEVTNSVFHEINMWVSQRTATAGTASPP
As to the kind of experiment: 4-NPA assay: MAGL inhibitory activity by hydrolysis of 4-nitrophenylacetate, absorbance at 405 nm. The class given is biochemical. Conditions: 4-NPA assay (values without footnote [a]). The method, then: Compounds were profiled for MAGL inhibitory activity by measuring the enzymatic activity of MAGL by following the hydrolysis of 4-nitorphenylacetate resulting in 4-nitrophenol, which absorbs at 405-412 nm (G. G. Muccioli, G. Labar, D M. Lambert, Chem. Bio. Chem. 2008, 9, 2704-2710). This assay is hereinafter abbreviated “4-NPA assay”.
The 4-NPA assay was carried out in 384 well assay plates (black with clear bottom, non-binding surface treated, Corning Ref. 3655) in a total volume of 40 μL. Compound dilutions were made in 100% DMSO (VWR Chemicals 23500.297) in a polypropylene plate in 3-fold dilution steps to give a final concentration range in the assay from 25 μM to 1.7 nM. 1 μL compound dilutions (100% DMSO) were added to 19 μL MAGL (recombinant wild-type) in assay buffer (50 mM TRIS (GIBCO, 15567-027), 1 mM EDTA (Fluka, 03690-100 ml)). The plate was shaked for 1 min at 2000 rpm (Variomag Teleshake) and then incubated for 15 min at RT. To start the reaction, 20 μL 4-Nitrophenlyacetate (Sigma N-8130) in assay buffer with 6% EtOH was added. The final concentrations in the assay were 1 nM MAGL and 300 μM 4-Nitrophenylacetate. After shaking (1 min, 2000 rpm) and 5 min incubation at RT, the absorbance at 405 nm was measured for a first time (Molecular Devices, SpectraMax Paradigm). A second measurement was then done after incubation for 80 min at RT. From the two measurements, the slope was calculated by substracting the first from the second measurement.

32 compounds from patent US11420961B2, “Heterocyclic compounds” (Hoffmann-La Roche Inc., priority 2017, dated 2022) can be followed below.

The structures appear in SMILES notation.

A word on the IC50: it is the concentration at which inhibition is half-maximal. On to `O=C1COc2ccc(C(=O)N3CCC(c4cn(C5CC5)c5cc(Cl)ccc45)CC3)cc2N1` [Example 34, 6-[4-(6-chloro-1-cyclopropylindol-3-yl)piperidine-1-carbonyl]-4H-1,4-benzoxazin-3-one], for which the IC50 is 36 nM. With `O=C1COc2ccc(C(=O)N3CCC(c4cn(Cc5cccc(Cl)c5)c5ccccc45)CC3)cc2N1` [Example 35, 6-[4-[l-[(3-chlorophenyl)methyl]indol-3-yl]piperidine-1-carbonyl]-4H-1,4-benzoxazin-3-one], the half-inhibitory concentration (IC50) was 37 nM. For `O=C1COc2ccc(C(=O)N3CCC(c4n[nH]c5ccccc45)CC3)cc2N1` [Example 36, 6-[4-(1H-indazol-3-yl)piperidine-1-carbonyl]-4H-1,4-benzoxazin-3-one], the IC50 was 158 nM. In the case of `O=C1COc2ccc(C(=O)N3CCC(c4nn(CCO)c5cc(F)ccc45)CC3)cc2N1` [Example 37, 6-[4-[6-fluoro-1-(2-hydroxyethyl)indazol-3-yl]piperidine-1-carbonyl]-4H-1,4-benzoxazin-3-one], the IC50 was found to be 350 nM.

On to `CC(C)n1nc(C2CCN(C(=O)c3ccc4c(c3)NC(=O)CO4)CC2)c2ccc(F)cc21` [Example 38, 6-[4-(6-fluoro-1-propan-2-ylindazol-3-yl)piperidine-1-carbonyl]-4H-1,4-benzoxazin-3-one], for which the IC50 is 86 nM. In the case of `Cn1nc(C2CCN(C(=O)c3ccc4c(c3)NC(=O)CO4)CC2)c2ccc(Cl)cc21` [Example 39, 6-[4-(6-chloro-1-methylindazol-3-yl)piperidine-1-carbonyl]-4H-1,4-benzoxazin-3-one], the half-inhibitory concentration (IC50) is 84 nM. Turning to `O=C1COc2ccc(C(=O)N3CCC(c4cc5ccccc5[nH]4)CC3)cc2N1` [Example 40, 6-[4-(1H-indol-2-yl)piperidine-1-carbonyl]-4H-1,4-benzoxazin-3-one], the 50% inhibitory concentration (IC50) is 550 nM. For `COc1ccc2[nH]c(C)c(C3CCN(C(=O)c4ccc5c(c4)NC(=O)CO5)CC3)c2c1` [Example 41, 6-[4-(5-methoxy-2-methyl-1H-indol-3-yl)piperidine-1-carbonyl]-4H-1,4-benzoxazin-3-one], the IC50 came out at 440 nM. Turning to `O=C1COc2ccc(C(=O)N3CCC(c4csc5ccccc45)CC3)cc2N1` [Example 42, 6-[4-(1-benzothiophen-3-yl)piperidine-1-carbonyl]-4H-1,4-benzoxazin-3-one], the IC50 is 97 nM.

On to `O=C1COc2ccc(C(=O)N3CCC(c4n[nH]c5cc(F)ccc45)CC3)cc2N1` [Example 43, 6-[4-(6-fluoro-1H-indazol-3-yl)piperidine-1-carbonyl]-4H-1,4-benzoxazin-3-one], for which the IC50 was 180 nM. As to `O=C1COc2ccc(C(=O)N3CCC(c4cc(-c5ccc(Cl)cc5)[nH]n4)CC3)cc2N1` [Example 44, 6-[4-[5-(4-chlorophenyl)-1H-pyrazol-3-yl]piperidine-1-carbonyl]-4H-1,4-benzoxazin-3-one], the 50% inhibitory concentration (IC50) turned out to be 390 nM. Under `O=C1COc2ccc(C(=O)N3CCC(c4c[nH]c5ncccc45)CC3)cc2N1` [Example 45, 6-[4-(1H-pyrrolo[2,3-b]pyridin-3-yl)piperidine-1-carbonyl]-4H-1,4-benzoxazin-3-one] stands 220 nM.

For the compound `O=C1COc2ccc(C(=O)N3CCC(c4cc5ccc(Cl)cc5[nH]4)CC3)cc2N1` [Example 46, 6-[4-(6-chloro-1H-indol-2-yl)piperidine-1-carbonyl]-4H-1,4-benzoxazin-3-one], the IC50 is 1110 nM. Take `Cc1[nH]c2ccc(Cl)cc2c1C1CCN(C(=O)c2ccc3c(c2)NC(=O)CO3)CC1` [Example 47, 6-[4-(5-chloro-2-methyl-1H-indol-3-yl)piperidine-1-carbonyl]-4H-1,4-benzoxazin-3-one]: the IC50 was determined as 59 nM. Regarding `O=C1COc2ccc(C(=O)N3CCC(c4nnc(-c5ccccc5)o4)CC3)cc2N1` [Example 48, 6-[4-(5-phenyl-1,3,4-oxadiazol-2-yl)piperidine-1-carbonyl]-4H-1,4-benzoxazin-3-one], the IC50 worked out at 549 nM.

Turning to `O=C1COc2ccc(C(=O)N3CCC(n4cnc5ccccc54)CC3)cc2N1` [Example 49, 6-[4-(benzimidazol-1-yl)piperidine-1-carbonyl]-4H-1,4-benzoxazin-3-one], the IC50 stood at 5540 nM. On to `O=C1COc2ccc(C(=O)N3CCC(c4noc5cc(C(F)(F)F)ccc45)CC3)cc2N1` [Example 50, 6-[4-[6-(trifluoromethyl)-1,2-benzoxazol-3-yl]piperidine-1-carbonyl]-4H-1,4-benzoxazin-3-one], for which the 50% inhibitory concentration (IC50) is 150 nM. For the compound `O=C1COc2ccc(C(=O)N3CCC(c4noc5cc(F)ccc45)CC3)cc2N1` [Example 51, 6-[4-(6-fluoro-1,2-benzoxazol-3-yl)piperidine-1-carbonyl]-4H-1,4-benzoxazin-3-one], the IC50 worked out at 370 nM.

Regarding `O=C1COc2ccc(C(=O)N3CCC(c4noc5ccc(F)cc45)CC3)cc2N1` [Example 52, 6-[4-(5-fluoro-1,2-benzoxazol-3-yl)piperidine-1-carbonyl]-4H-1,4-benzoxazin-3-one], the IC50 came out at 140 nM. `O=C1COc2ccc(C(=O)N3CCC(C4(c5ccc(Cl)cc5)CCCO4)CC3)cc2N1` (centres unmarked) [Example 53, 6-[4-[2-(4-chlorophenyl)oxolan-2-yl]piperidine-1-carbonyl]-4H-1,4-benzoxazin-3-one]: the IC50 came out at 6.3 nM. Regarding `O=C1COc2ccc(C(=O)N3CCC(C4(c5ccc(Br)cc5)OCCO4)CC3)cc2N1` [Example 54, 6-[4-[2-(4-bromophenyl)-1,3-dioxolan-2-yl]piperidine-1-carbonyl]-4H-1,4-benzoxazin-3-one], the IC50 amounted to 7.3 nM.

As for `O=C1COc2ccc(C(=O)N3CCC(C4(c5ccccc5)CC4)CC3)cc2N1` [Example 55, 6-[4-(1-phenylcyclopropyl)piperidine-1-carbonyl]-4H-1,4-benzoxazin-3-one], the IC50 turned out to be 68 nM.

On to `O=C1COc2ccc(C(=O)N3CCC(c4cccc(Cl)c4)C3)cc2N1` (centres unmarked) [Example 56, 6-[3-(3-chlorophenyl)pyrrolidine-1-carbonyl]-4H-1,4-benzoxazin-3-one], for which the 50% inhibitory concentration (IC50) is 1400 nM. Under `O=C1COc2ccc(C(=O)N3CCC(c4nccc(C(F)(F)F)n4)C3)cc2N1` (centres unmarked) [Example 57, 6-[3-[4-(trifluoromethyl)pyrimidin-2-yl]pyrrolidine-1-carbonyl]-4H-1,4-benzoxazin-3-one] stands 3020 nM; under `COc1ccc(C(c2ccccc2)C2CCN(C(=O)c3ccc4c(c3)NC(=O)CO4)CC2)cc1` (centres unmarked) [Example 58, 6-[4-[(4-methoxyphenyl)-phenyl-methyl]piperidine-1-carbonyl]-4H-1,4-benzoxazin-3-one], 0.8 nM. For `Cc1cccc(C(c2ccccc2)C2CCN(C(=O)c3ccc4c(c3)NC(=O)CO4)CC2)c1` (centres unmarked) [Example 59, 6-[4-[m-tolyl(phenyl)methyl]piperidine-1-carbonyl]-4H-1,4-benzoxazin-3-one], the IC50 was 0.5 nM. In the case of `O=C1COc2ccc(C(=O)N3CCC(C(c4ccccc4)n4ccc5ccccc54)CC3)cc2N1` (centres unmarked) [Example 60, 6-[4-[indol-1-yl(phenyl)methyl]piperidine-1-carbonyl]-4H-1,4-benzoxazin-3-one], the IC50 was determined as 0.62 nM. Regarding `O=C1COc2ccc(C(=O)N3CCC([C@H](c4ccccc4)c4cccc(OCCOCCF)c4)CC3)cc2N1` [Example 66, 6-[4-[(R)-[3-[2-(2-fluoroethoxy)ethoxy]phenyl]-phenyl-methyl]piperidine-1-carbonyl]-4H-1,4-benzoxazin-3-one], the IC50 came to 0.24 nM. Under `O=C1COc2ccc(C(=O)N3CCC([C@@H](c4ccccc4)c4cccc(OCCOCCF)c4)CC3)cc2N1` [Example 67, 6-[4-[(S)-[3-[2-(2-fluoroethoxy)ethoxy]phenyl]-phenyl-methyl]piperidine-1-carbonyl]-4H-1,4-benzoxazin-3-one] stands 0.65 nM; under `O=C1COc2ccc(C(=O)N3CCC(C(c4ccccc4)c4cccc(OCCF)c4)CC3)cc2N1` (centres unmarked) [Example 72, 6-[4-[[3-(2-fluoroethoxy)phenyl]-phenyl-methyl]piperidine-1-carbonyl]-4H-1,4-benzoxazin-3-one], 0.55 nM. Under `O=C1COc2ccc(C(=O)N3CCC(C(c4ccccc4)c4ccc(OCCF)cc4)CC3)cc2N1` (centres unmarked) [Example 73, 6-[4-[[4-(2-fluoroethoxy)phenyl]-penyl-methyl]piperidine-1-carbonyl]-4H-1,4-benzoxazin-3-one] stands 0.73 nM; under `O=C1COc2ccc(C(=O)N3CCC([C@@H](c4ccccc4)c4cccc(F)c4)CC3)cc2N1` [Example 74, 6-[4-[(S)-(3-fluorophenyl)-phenyl-methyl]piperidine-1-carbonyl]-4H-1,4-benzoxazin-3-one], 0.56 nM.
